In test [1] the target is T1, Adenosine deaminase (Bos taurus) (UniProt P56658).
T1 sequence (whole entry): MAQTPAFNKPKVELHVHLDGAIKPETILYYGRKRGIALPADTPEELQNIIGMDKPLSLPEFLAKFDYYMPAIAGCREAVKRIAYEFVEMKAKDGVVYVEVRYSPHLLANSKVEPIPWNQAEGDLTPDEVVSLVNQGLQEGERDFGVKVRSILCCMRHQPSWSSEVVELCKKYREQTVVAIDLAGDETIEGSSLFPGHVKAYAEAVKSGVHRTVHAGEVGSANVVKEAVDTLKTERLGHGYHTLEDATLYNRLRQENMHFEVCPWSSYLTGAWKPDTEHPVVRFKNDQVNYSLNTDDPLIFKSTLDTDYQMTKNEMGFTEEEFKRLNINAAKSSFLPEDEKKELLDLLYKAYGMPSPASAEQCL
Description: Activity at calf intestine ADA by adenosine deaminase assay after 24 hrs.

Test [2] has as its system Human betaherpesvirus 5. The test can be described thus: Inhibition of HCMV AD169 replication in HFF cells by cytopathic effect assay. It counts as functional, organism-based. The conditions noted are these: Human betaherpesvirus 5, AD169, HFF. (In general: Protection from cytopathic effect is a common read-out in antiviral testing.)
The test system of test [3] is HFF. The test can be described thus: Cytotoxicity against HFF cell by neutral red uptake assay. In kind it is functional. The conditions noted are these: Homo sapiens.
Test [4] relates to Human gammaherpesvirus 4. Description: Inhibition of EBV replication in H1 cells by DNA hybridization assay. In kind it is functional, organism-based. The conditions noted are these: human gammaherpesvirus 4, H1.
Test [5] relates to Human betaherpesvirus 5. The test can be described thus: Inhibition of HCMV towne replication in HFF cells by plaque reduction assay. The conditions noted are these: Human betaherpesvirus 5, Towne. In kind it is functional, organism-based. (In a plaque reduction assay, fewer plaques than in the control indicate reduced infectivity or spread.)
Test [6] deals with Hepatitis B virus. The test can be described thus: Inhibition of HBV replication in 2.2.15 cells by DNA hybridization assay. In kind it is functional, organism-based. The conditions noted are these: HepG2 2.2.15.
The test system of test [7] is HepG2. Description: Cytotoxicity against 2.2.15 cells. It counts as functional. The conditions noted are these: Homo sapiens.
In test [8] the target is T1, Adenosine deaminase (Bos taurus). The test can be described thus: Activity at calf intestine ADA by adenosine deaminase assay after 48 hrs.
Test [9] deals with Human immunodeficiency virus 1. Description: Inhibition of HIV1 LAI replication in MT2 cells by cytopathic effect assay. In kind it is functional, organism-based. The conditions noted are these: Human immunodeficiency virus 1, LAI.
Test [10] deals with MT2. The test can be described thus: Cytotoxicity against MT2 cells. The conditions noted are these: Homo sapiens. It counts as functional.
Test [11] concerns Human alphaherpesvirus 1. The test can be described thus: Inhibition of HSV1 replication in BSC1 cells by ELISA. The conditions noted are these: Human alphaherpesvirus 1, BSC-1. It counts as functional, organism-based. (In general: In an ELISA, binding on a coated surface is turned into a signal by an enzyme label.)
The subject of test [12] is KB. The test can be described thus: Cytotoxicity against KB cells. In kind it is functional. The conditions noted are these: Homo sapiens.
The test system of test [13] is Human gammaherpesvirus 4. Description: Inhibition of EBV replication in Daudi cells by viral capsid antigen-ELISA. It counts as functional, organism-based. The conditions noted are these: human gammaherpesvirus 4, Daudi.
For test [14], the system named is Daudi. The test can be described thus: Cytotoxicity against Daudi cells. The conditions noted are these: Homo sapiens. In kind it is functional.

The source made the active and inactive calls. The calls are words filed in the database; no cut-off is given here.

The term EC50 denotes the concentration at which the effect is half-maximal. A word on the CC50: it is the concentration that lowers cell viability or growth by half.

`Nc1ncnc2c1ncn2/C=C1/[C@@H](F)[C@H]1CO` (relative stereo) came in with an Activity in [1] of 50%.
As for `Nc1ncnc2c1ncn2/C=C1/[C@@H](CO)[C@H]1F` (relative stereo), the Activity in [1] came to 50%.
Regarding `Nc1nc2c(ncn2COC(CO)CO)c(=O)[nH]1` [GANCICLOVIR], the EC50 in test [2] worked out at 150 nM; in [4], 5000 nM; in [5] it was 1800 nM. In test [3], this compound gave a CC50 greater than 100000 nM.
On to `Nc1ccn([C@@H]2CS[C@H](CO)O2)c(=O)n1` [LAMIVUDINE], for which, in [6], the EC50 was found to be 20 nM. In test [7], the CC50 is greater than 100000 nM.
Turning to `Nc1ncnc2c1ncn2/C=C1/[C@@H](F)[C@@H]1CO` (relative stereo), the Activity in test [1] stood at 50%.
As for `Nc1ncnc2c1ncn2/C=C1\[C@H](F)[C@H]1CO` (relative stereo), the outcome in [8] was inactive.
With `Cc1cn([C@H]2C[C@H](N=[N+]=[N-])[C@@H](CO)O2)c(=O)[nH]c1=O` [ZIDOVUDINE], in [9], the EC50 worked out at 20 nM. In addition, in test [10], the CC50 is greater than 10000 nM.
As for `Nc1nc2c(ncn2COCCO)c(=O)[nH]1` [ACYCLOVIR], the EC50 worked out at 3500 nM in test [11] and 330 nM in test [13]. Besides, the CC50 in test [12] and in test [14] was greater than 100000 nM in each case.

Values taken from ChEMBL document CHEMBL1137379, “9-{[3-fluoro-2-(hydroxymethyl)cyclopropylidene]methyl}adenines and -guanines. Synthesis and antiviral activity of all stereoisomers1” (J Med Chem, 2006).
